Data taken from ChEMBL document CHEMBL1773045, “Conjugate (MTC-220) of muramyl dipeptide analogue and paclitaxel prevents both tumor growth and metastasis in mice” (J Med Chem, 2011).
The source made the active and inactive calls. The rule behind the calls is not given here.

Experiments:
T47D = test: Growth inhibition of human T47D cells after 48 hrs by sulforhodamine B assay; format: functional
Mus musculus [1] = test: Toxicity in ICR mouse assessed as mortality at 112.5 mg/kg, iv; format: organism-based; design: dose 112.5 mg/kg, route intravenous; conditions: in vivo
MDA-MB-231 [2] = test: Antitumor activity against human MDA-MB-231 cells xenografted in nu/nu BALB/c mouse assessed as tumor growth inhibition at 10 mg/kg, ip qd for 24 days measured on day 25 relative to control; format: functional; conditions: MDA-MB-231, ip, route intraperitoneal, read-out: GI
MDA-MB-231 [3] = test: Antitumor activity against human MDA-MB-231 cells xenografted in nu/nu BALB/c mouse assessed as tumor growth inhibition at 15 mg/kg, ip qd for 24 days measured on day 25 relative to control; format: functional; conditions: MDA-MB-231, ip, route intraperitoneal, read-out: GI
MCF7 = test: Antitumor activity against human MCF7 cells xenografted in nu/nu BALB/c mouse assessed as tumor growth inhibition at 30 mg/kg, ip qd for 12 days measured on day 36 relative to control; format: functional; conditions: route intraperitoneal, read-out: GI
A2780 [4] = test: Antitumor activity against human A2780 cells xenografted in nu/nu BALB/c mouse assessed as tumor growth inhibition at 30 mg/kg, ip qd for 12 days measured on day 25 relative to control; format: functional; conditions: route intraperitoneal, read-out: GI
NCI-H460 [5] = test: Antitumor activity against human H460 cells xenografted in nu/nu BALB/c mouse assessed as tumor growth inhibition at 10 mg/kg, ip qd for 24 days measured on day 25 relative to control; format: functional; conditions: route intraperitoneal, read-out: GI
A549 [6] = test: Antitumor activity against human A549 cells xenografted in nu/nu BALB/c mouse assessed as tumor growth inhibition at 30 mg/kg, ip qd for 12 days measured on day 25 relative to control; format: functional; conditions: route intraperitoneal, read-out: GI
Mus musculus [7] = test: Toxicity in human cancer cells xenografted in nu/nu BALB/c mouse assessed as mortality at 5 to 30 mg/kg, ip qd for 24 days; format: organism-based, Cancer cell lines; design: dose 5-30 mg/kg, route intraperitoneal; conditions: in vivo, 576 h
Mus musculus [8] = test: Toxicity in human cancer cells xenografted in nu/nu BALB/c mouse assessed as body weight loss at 5 to 30 mg/kg, ip qd for 24 days; format: organism-based, Cancer cell lines; design: dose 5-30 mg/kg, route intraperitoneal; conditions: in vivo, 576 h
[9] = test system: Lewis lung carcinoma cell line; test: Antitumor activity against mouse LLC cells xenografted in C57BL/6 mouse assessed as tumor growth inhibition at 10 mg/kg, ip qd for 15 days relative to control; format: functional; conditions: 360 h, route intraperitoneal, read-out: GI
Mus musculus [10] = test: Toxicity in mouse LLC cells xenografted C57BL/6 mouse assessed as decrease in body weight at 10 mg/kg, ip qd for 15 days; format: organism-based; design: dose 10 mg/kg, route intraperitoneal; conditions: in vivo, 360 h
4T1 [11] = test: Antitumor activity against mouse 4T1 cells xenografted in […] mouse assessed as tumor growth inhibition at 2.5 mg/kg, ip qd for 28 days relative to control; format: functional; conditions: 4T1, ip, 672 h, route intraperitoneal, read-out: GI
4T1 [12] = test: Antitumor activity against mouse 4T1 cells xenografted in […] mouse assessed as tumor growth inhibition at 5 mg/kg, ip qd for 28 days relative to control; format: functional; conditions: 4T1, ip, 672 h, route intraperitoneal, read-out: GI
Mus musculus [13] = test: Antimetastatic activity against mouse 4T1 cells xenografted in BALB/c mouse assessed as reduction of myeloid derived suppressor cells accumulation in bone marrow at 5 mg/kg, ip qd for 23 days by flow cytometry analysis relative to control; format: functional; design: scale not given: the % may be the effect or the level left; conditions: route intraperitoneal
Mus musculus [14] = test: Antimetastatic activity against mouse 4T1 cells xenografted in BALB/c mouse assessed as reduction of TNFalpha mRNA expression in tumor at 5 mg/kg, ip qd for 23 days by RT-PCR analysis; format: functional, organism-based; design: dose 5 mg/kg
Mus musculus [15] = test: Antimetastatic activity against mouse 4T1 cells xenografted in BALB/c mouse assessed as reduction of CCL2 mRNA expression in tumor at 5 mg/kg, ip qd for 23 days by RT-PCR analysis; format: functional, organism-based; design: dose 5 mg/kg
Mus musculus [16] = test: Antimetastatic activity against mouse 4T1 cells xenografted in BALB/c mouse assessed as reduction of MMP9 mRNA expression in tumor at 5 mg/kg, ip qd for 23 days by RT-PCR analysis; format: functional, organism-based; design: dose 5 mg/kg
HeLa = test: Cytotoxicity against human HeLa cells after 72 hrs by MTT assay; format: functional, cell-based
A2780 [17] = test: Cytotoxicity against human A2780 cells after 72 hrs by MTT assay; format: functional, cell-based
[18] = Growth inhibition of human […] cells after 48 hrs by sulforhodamine B assay; format: functional
A549 [19] = test: Growth inhibition of human A549 cells after 48 hrs by sulforhodamine B assay; format: functional; conditions: A549, 48 h
EKVX = test: Growth inhibition of human EKVX cells after 48 hrs by sulforhodamine B assay; format: functional
NCI-H226 = test: Growth inhibition of human NCI-H226 cells after 48 hrs by sulforhodamine B assay; format: functional; conditions: NCI-H226, 48 h
NCI-H460 [20] = test: Growth inhibition of human NCI-H460 cells after 48 hrs by sulforhodamine B assay; format: functional; conditions: NCI-H460, 48 h
NCI-H522 = test: Growth inhibition of human NCI-H522 cells after 48 hrs by sulforhodamine B assay; format: functional; conditions: NCI-H522, 48 h
COLO 205 = test: Growth inhibition of human COLO205 cells after 48 hrs by sulforhodamine B assay; format: functional; conditions: COLO 205, 48 h
HCC 2998 = test: Growth inhibition of human HCC2998 cells after 48 hrs by sulforhodamine B assay; format: functional; conditions: HCC 2998, 48 h
SW-620 = test: Growth inhibition of human SW620 cells after 48 hrs by sulforhodamine B assay; format: functional; conditions: SW-620, 48 h
SF-295 = test: Growth inhibition of human SF295 cells after 48 hrs by sulforhodamine B assay; format: functional; conditions: SF-295, 48 h
SF-539 = test: Growth inhibition of human SF539 cells after 48 hrs by sulforhodamine B assay; format: functional; conditions: SF-539, 48 h
SNB-19 = test: Growth inhibition of human SNB19 cells after 48 hrs by sulforhodamine B assay; format: functional; conditions: SNB-19, 48 h
LOX IMVI = test: Growth inhibition of human LOXIMVI cells after 48 hrs by sulforhodamine B assay; format: functional
SK-MEL-2 = test: Growth inhibition of human SK-MEL-2 cells after 48 hrs by sulforhodamine B assay; format: functional; conditions: SK-MEL-2, 48 h
UACC-62 = test: Growth inhibition of human UACC62 cells after 48 hrs by sulforhodamine B assay; format: functional; conditions: UACC-62, 48 h
SK-OV-3 = test: Growth inhibition of human SKOV3 cells after 48 hrs by sulforhodamine B assay; format: functional; conditions: SK-OV-3, 48 h
A498 = test: Growth inhibition of human A498 cells after 48 hrs by sulforhodamine B assay; format: functional; conditions: A498, 48 h
RXF 393 = test: Growth inhibition of human RXF393 cells after 48 hrs by sulforhodamine B assay; format: functional; conditions: RXF 393, 48 h
UO-31 = test: Growth inhibition of human UO31 cells after 48 hrs by sulforhodamine B assay; format: functional; conditions: UO-31, 48 h
NCI/ADR-RES = test: Growth inhibition of human NCI/ADR-RES cells after 48 hrs by sulforhodamine B assay; format: functional

SMILES: CC(=O)O[C@H]1C(=O)[C@@]2(C)[C@H]([C@H](OC(=O)c3ccccc3)[C@]3(O)C[C@H](OC(=O)[C@H](OC(=O)CCC(=O)NCCCC[C@H](NC(=O)CC[C@H](NC(=O)[C@H](C)NC(=O)/C=C/c4ccc(Cl)cc4)C(N)=O)C(N)=O)[C@H](NC(=O)c4ccccc4)c4ccccc4)C(C)=C1C3(C)C)[C@]1(OC(C)=O)CO[C@@H]1C[C@@H]2O
- GI50 (T47D): < 10 nM
- Activity (Mus musculus [1]): Non-toxic
- inhibition in vivo at 10 mg/kg (MDA-MB-231 [2]): 37.3%
- inhibition in vivo at 15 mg/kg (MDA-MB-231 [3]): 57.4%
- inhibition in vivo at 30 mg/kg (MCF7): 100%
- inhibition in vivo at 30 mg/kg (A2780 [4]): 45.2%
- inhibition in vivo at 10 mg/kg (NCI-H460 [5]): 17.3%
- inhibition in vivo at 30 mg/kg (A549 [6]): 79.9%
- Activity (Mus musculus [7]): Non-toxic
- Activity (Mus musculus [8]): Non-toxic
- inhibition in vivo at 10 mg/kg [9]: 33.1%
- Activity (Mus musculus [10]): Non-toxic
- inhibition in vivo at 2.5 mg/kg (4T1 [11]): 27.4%
- inhibition in vivo at 5 mg/kg (4T1 [12]): 33.5%
- Activity (Mus musculus [13]): 45.3%
- Activity (Mus musculus [14]): Active
- Activity (Mus musculus [15]): Active
- Activity (Mus musculus [16]): Active
- Activity (HeLa): Active
- Activity (A2780 [17]): Active
- GI50 [18]: < 10 nM
- GI50 (A549 [19]): < 10 nM
- GI50 (EKVX): < 10 nM
- GI50 (NCI-H226): < 10 nM
- GI50 (NCI-H460 [20]): < 10 nM
- GI50 (NCI-H522): < 10 nM
- GI50 (COLO 205): < 10 nM
- GI50 (HCC 2998): < 10 nM
- GI50 (SW-620): < 10 nM
- GI50 (SF-295): < 10 nM
- GI50 (SF-539): < 10 nM
- GI50 (SNB-19): < 10 nM
- GI50 (LOX IMVI): < 10 nM
- GI50 (SK-MEL-2): < 10 nM
- GI50 (UACC-62): < 10 nM
- GI50 (SK-OV-3): < 10 nM
- GI50 (A498): < 10 nM
- GI50 (RXF 393): < 10 nM
- GI50 (UO-31): < 10 nM
- GI50 (NCI/ADR-RES): < 10 nM
